These results are taken from US6335039B1, “Pharmaceutical formulations comprising vegetal material selected from trichilia” (Laboratorio Catarinense S/A, priority 1997, dated 2002).

For experiment [1], the system named is corpus cavernosum of the rabbit (RbCC). The experiment is classed as cell-based. Conditions: for relaxation of RbCC in presence of ATP-dependent potassium channel blocker: blocker 10 μM (Glybenclamide, FIG. 4).
A further experiment has as its system HCC. As to the kind of experiment: Superfusion of isolated corpus cavernosum (human, HCC). The experiment is classed as cell-based.
The next experiment concerns nociception by formalin. As to the kind of experiment: Formalin-induced licking. Conditions: naloxone 10 minutes before; acute and inflammatory phases, formalin 2.5% w/v. In kind it is in vivo, mice. How it is done:
Male Swiss mice varying from 25 to 35 g, were housed at 22° C.±2° C. under a 12 h light/12 h dark circle and with access to water and purina. The animals were acclimatized to the laboratory for at least 1 hour before testing and were used once throughout the experiments.
Mice were lightly anaesthetized, with exception of those used to analyze the first phase of fromalin-induced pain. The surface of the animals paws was injected with 20 μL of 2.5% w/v formalin. Two groups of mice (mice treated with T. catigua and control mice) were simultaneously observed over a period from 0 to 30 min after the formalin injection. The total time spent by the animal licking the injected paw was timed with a chronometer and was considered as an indicative of pain. The first phase of the nociceptive response normally occurred […] the formalin injection and the second phase was from 15 to 30 min after such induction. These phases represent the neurogenic and inflammatory responses, respectively. In order to avoid pharmacokinetic influences, different groups of animals were used to analyze each phase of the experiment. Alternatively, animals were pretreated with naloxone 10 min prior to the administration of compositions comprising an extract of T. catigua.

Take `CC1(C)Oc2ccc(C#N)cc2C(N2CCCC2=O)C1O` (stereo not shown) [CMK, cromakalim]: in experiment [1], the “relaxation of RbCC in presence of ATP-dependent potassium channel blocker” value is listed as “inhibited”.
Regarding `O=[N+]([O-])OCC(CO[N+](=O)[O-])O[N+](=O)[O-]` [GTN, glyceryltrinitrate], the “relaxation of HCC during L-NAME infusion” value in the experiment on HCC (Ach 0.6 μM, GTN 1.3 μM, Cat 10-100 μL, 4 tissue strips from 2 donators) was “not significantly affected”. In experiment [1], the “relaxation of RbCC in presence of tetrodotoxin” value is “did not present any effect” and the “relaxation of RbCC in presence of ATP-dependent potassium channel blocker” value is “without affecting”. For the same compound, in experiment [1] (L-NAME 10 μM, FIG. 2, 6 experiments), the “relaxation of RbCC during L-NAME infusion” value was “not affected”. The “relaxation of RbCC in presence of atropine” value in experiment [1] (atropine 1 μM, FIG. 3, 4 experiments) was “did not present any effect”.
As for `COC(=O)[C@@H](N)CCCNC(=N)N[N+](=O)[O-]` [L-NAME, N^m-nitro-L-arginine methyl ester], in the experiment with HCC (infusion of L-NAME), the HCC tonus entry is recorded as “enhanced the HCC tonus”. Further, in experiment [1] (infusion of L-NAME 10 μM, FIG. 2), the “basal tonus of RbCC” value is “enhanced the basal tonus”.
`N=C(N)NCCC[C@H](N)C(=O)O` [L-arg, L-arginine]: in experiment [1] (L-arg 300 μM after L-NAME, FIG. 2), the “RbCC tonus on subsequent infusion after L-NAME” value is reported as “reverted the enhanced tonus”.
With `CN1CC[C@]23c4c5ccc(O)c4O[C@H]2[C@@H](O)C=C[C@H]3[C@H]1C5` [morphine], the “analgesic action after pretreatment with naloxone” value with nociception by formalin is recorded as “reverted”.
